Measured values: patent US9355826B2, “Method for imaging mass analysis using physical vapor deposition of platinum nanoparticles” (priority 2012, dated 2016)

Experiment: IMS visualization of permeation and distribution of acephate in ivy after scattering a grain type agricultural chemical on the soil
Assay type: in vivo
Conditions: for mass spectrum of collected leaves (peaks originating from acephate): FIG. 32; for distribution of acephate on leaf (peak at m/z=206): FIG. 33; for distribution of acephate in stem (peak at m/z=206): ivy stems collected 4 days later, FIG. 34
Experimental: A grain type pesticide agricultural chemical for horticulture was scattered on soil in which ivy was planted. 4, 8, 11, and 14 days later, leaves at about 30 mm from the soil were collected, and platinum nanoparticles were vapor deposited using a magnetron sputtering device to a thickness of 10 nm, thereby preparing samples. The grain type agricultural chemical that was used contained acephate as an active component.
Each sample was measured by IMS. Also, for the stems that were collected 4 days later, the lower stem and the upper stem, which were respectively close to and far from the root, were measured by IMS under the same conditions.
The measurement conditions of IMS are shown below.
Irradiation laser: Nd:YAG laser (355 nm)
Accelerating voltage: 19 kV
Reflectron voltage: 21 kV
Laser radius: about 100 μm (ultra mode)
Measurement interval: 150 μm

COP(=O)(NC(C)=O)SC (centres unmarked) [acephate]
mass spectrum of collected leaves (peaks originating from acephate) (ivy leaves at about 30 mm from the soil, collected 4 days after scattering on soil): only the peaks of the wax layer were observed
distribution of acephate on leaf (peak at m/z=206) (ivy leaves collected 4 days later): not observed
distribution of acephate on leaf (peak at m/z=206) (ivy leaves collected 8 days later): observed at the base of the leaves
mass spectrum of collected leaves (peaks originating from acephate) (ivy leaves collected 11 days after scattering on soil): peaks originating from acephate were observed
distribution of acephate on leaf (peak at m/z=206) (ivy leaves collected 11 days later): observed spreading to the tips of the leaves
distribution of acephate on leaf (peak at m/z=206) (ivy leaves collected 14 days later): observed spreading to the tips of the leaves
distribution of acephate in stem (peak at m/z=206) (lower stem close to the soil): strong peak of acephate was observed in the lower side of the lower stem
distribution of acephate in stem (peak at m/z=206) (moving upward along the stem): gradual weakening of the acephate peak
